We go through 22 compounds from US12686665B2, “Bicyclic fused ring derivative or salt thereof and pharmaceutical composition comprising same” (YUHAN CORPORATION, priority 2021, dated 2026).

For the test, the target named is T1, recombinant human Lysyl Oxidase-Like 2 (LOXL2) (Homo sapiens, UniProt Q9Y4K0).
T1 construct: purchased R&D systems
T1 sequence (Q9Y4K0 26-774): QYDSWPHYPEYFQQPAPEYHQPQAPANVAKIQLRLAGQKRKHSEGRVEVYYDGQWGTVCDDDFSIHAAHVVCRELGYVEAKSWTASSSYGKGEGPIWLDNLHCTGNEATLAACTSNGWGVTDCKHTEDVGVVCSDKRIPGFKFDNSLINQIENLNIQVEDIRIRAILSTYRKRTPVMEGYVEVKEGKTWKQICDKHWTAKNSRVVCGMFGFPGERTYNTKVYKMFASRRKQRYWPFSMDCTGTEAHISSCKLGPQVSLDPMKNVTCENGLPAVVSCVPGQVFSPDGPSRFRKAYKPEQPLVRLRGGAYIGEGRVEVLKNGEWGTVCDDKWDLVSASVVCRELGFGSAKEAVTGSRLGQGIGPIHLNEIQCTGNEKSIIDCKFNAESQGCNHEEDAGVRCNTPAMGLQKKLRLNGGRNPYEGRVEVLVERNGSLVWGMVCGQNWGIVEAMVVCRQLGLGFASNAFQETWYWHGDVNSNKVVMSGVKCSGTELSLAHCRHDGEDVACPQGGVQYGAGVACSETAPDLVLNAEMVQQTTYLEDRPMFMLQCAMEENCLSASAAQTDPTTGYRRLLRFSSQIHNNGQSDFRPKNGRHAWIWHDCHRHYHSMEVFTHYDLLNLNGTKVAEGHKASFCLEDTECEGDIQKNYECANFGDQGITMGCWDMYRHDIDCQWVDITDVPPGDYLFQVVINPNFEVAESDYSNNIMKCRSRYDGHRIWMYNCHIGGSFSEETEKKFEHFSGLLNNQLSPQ
Kind of test: Amplex Red HRP-coupled amine oxidase assay, recombinant human LOXL2. Particulars: 60 min incubation with enzyme at 37° C., putrescine substrate, read-out: Inhibitory activity (IC50, nM) human LOXL2. Type of test: biochemical. How it is done: The activities of the compounds according to the present invention against recombinant human Lysyl Oxidase-Like 2 (recombinant human LOXL2, R&D systems) were evaluated by measuring the levels of hydrogen peroxide in the HRP (horseradish peroxidase) coupled reactions, with the Amplex Red Hydrogen Peroxide Assay Kit (Molecular Probes, Invitrogen, USA). The tests were carried out at 37° C., and putrescine was used as a substrate. In the HRP coupling reaction, the oxidation of 10-acetyl-3,7-dihydroxyphenoxazine (Amplex Red reagent) by hydrogen peroxide generates a fluorescent product, i.e., resorufin. Briefly, the test compounds were dissolved in dimethyl sulfoxide (DMSO) at a concentration of 20 mM. Dose-response measurements were carried out by serial dilutions in DMSO to generate a six-point curve. The upper concentration was adjusted according to the potency of the compound, and then diluted with the reaction buffer to obtain a final DMSO concentration of 1%. Purified human LOXL2 in 50 mM sodium phosphate buffer (pH7.4) was added to each well of a 96 well black plate. The test compounds dissolved in DMSO were incubated with the human LOXL2 enzyme at 37° C. for 60 minutes. After the incubation for 60 minutes, a reaction mixture containing 400 μM Amplex Red reagent, 30 mM putrescine, and 2 U/mL HRP in 50 mM sodium phosphate buffer (pH 7.4) was added to each well. Fluorescence was measured with a microplate reader (Flexstation3, Molecular Devices), under the conditions of excitation at 530 nm and emission at 590 nm, 1 hour after the addition of the mixture. Inhibition by each compound was measured as % reduction in signal, compared to the control without an inhibitor (diluted DMSO only). The data were fixed to a four-variable logistic model, and […] values were calculated using the GraphPad Prism program.

Counter-ions that a name gives are not always drawn.

Broadly, the IC50 is the concentration that gives 50% inhibition. As to `CCN(CC)S(=O)(=O)c1ccc(OC)c(-c2cc(C(=O)OC)cc3c2ncn3C/C(F)=C/CN)c1` [Example 26, methyl (Z)-1-(4-amino-2-fluorobut-2-en-1-yl)-4-(5-(N,N-diethylsulfamoyl)-2-methoxyphenyl)-1H-benzo[d]imidazol-6-carboxylate hydrochloride], the IC50 is 62.5 nM.

For `COC(=O)c1cc(-c2ccc(OC)c(S(=O)(=O)NC(C)C)c2)c2ncn(C/C(F)=C/CN)c2c1` [Example 28, methyl (Z)-1-(4-amino-2-fluorobut-2-en-1-yl)-4-(3-(N-isopropylsulfamoyl)-4-methoxyphenyl)-1H-benzo[d]imidazol-6-carboxylate hydrochloride], the IC50 was found to be 54.2 nM.

Consider `COC(=O)c1cc(-c2cccc(S(=O)(=O)NCc3ccc(OC)cc3)c2)c2ncn(C/C(F)=C/CN)c2c1` [Example 32, methyl (Z)-1-(4-amino-2-fluorobut-2-en-1-yl)-4-(3-(N-(4-methoxybenzyl)sulfamoyl)phenyl)-1H-benzo[d]imidazol-6-carboxylate hydrochloride], for which the IC50 was 60.1 nM.

In the case of `COC(=O)c1cc(-c2cccc(S(=O)(=O)N3CCCCC3)c2)c2ncn(C/C(F)=C/CN)c2c1` [Example 33, methyl (Z)-1-(4-amino-2-fluorobut-2-en-1-yl)-4-(3-(piperidin-1-ylsulfonyl)phenyl)-1H-benzo[d]imidazol-6-carboxylate hydrochloride], the IC50 was 55.6 nM.

Regarding `CCN(CC)S(=O)(=O)c1cccc(-c2cc(C(=O)OC)cc3c2ncn3C/C(F)=C/CN)c1` [Example 37, methyl (Z)-1-(4-amino-2-fluorobut-2-en-1-yl)-4-(3-(N,N-diethylsulfamoyl)phenyl)-1H-benzo[d]imidazol-6-carboxylate hydrochloride], the IC50 came to 70.3 nM.

Consider `NC/C=C(\F)Cn1nnc2c(-c3cccc(S(=O)(=O)N4CCCC4)c3)cccc21` [Example 104, (Z)-3-fluoro-4-(4-(3-(pyrrolidin-1-ylsulfonyl)phenyl)-1H-benzo[d][1,2,3]triazol-1-yl)but-2-en-1-amine hydrochloride], for which the IC50 came out at 51 nM.

For the compound `CS(=O)(=O)c1cccc(-c2cccc3c2nnn3C/C(F)=C/CN)c1` [Example 106, (Z)-3-fluoro-4-(4-(3-(methylsulfonyl)phenyl)-1H-benzo[d][1,2,3]triazol-1-yl)but-2-en-1-amine hydrochloride], the IC50 is 94 nM.

Turning to `COc1ccc(-c2cccc3c2nnn3C/C(F)=C/CN)cc1S(=O)(=O)NC(C)C` [Example 109, (Z)-5-(1-(4-amino-2-fluorobut-2-en-1-yl)-1H-benzo[d][1,2,3]triazol-4-yl)-N-isopropyl-2-methoxybenzenesulfonamide hydrochloride], the IC50 turned out to be 72 nM.

For `NC/C=C(\F)Cn1nnc2c(-c3cccc(S(=O)(=O)NC4CC4)c3)cccc21` [Example 110, (Z)-3-(1-(4-amino-2-fluorobut-2-en-1-yl)-1H-benzo[d][1,2,3]triazol-4-yl)-N-cyclopropylbenzenesulfonamide hydrochloride], the IC50 was 60 nM.

On to `COc1ccc(S(=O)(=O)N2CCN(C)CC2)cc1-c1cccc2c1nnn2C/C(F)=C/CN` [Example 113, (Z)-3-fluoro-4-(4-(2-methoxy-5-((4-methylpiperazin-1-yl)sulfonyl)phenyl)-1H-benzo[d][1,2,3]triazol-1-yl)but-2-en-1-amine hydrochloride], for which the IC50 came to 65 nM.

`COC(=O)c1cc(-c2ccc(OC)c(S(=O)(=O)N(C)C)c2)c2nnn(C/C(F)=C/CN)c2c1` [Example 114, methyl (Z)-1-(4-amino-2-fluorobut-2-en-1-yl)-4-(3-(N,N-dimethylsulfamoyl)-4-methoxyphenyl)-1H-benzo[d][1,2,3]triazol-6-carboxylate hydrochloride]: the IC50 stood at 18.6 nM.

Turning to `COC(=O)c1cc(-c2cccc(S(=O)(=O)N3CCC(F)(F)C3)c2)c2nnn(C/C(F)=C/CN)c2c1` [Example 115, methyl (Z)-1-(4-amino-2-fluorobut-2-en-1-yl)-4-(3-((3,3-difluoropyrrolidin-1-yl)sulfonyl)phenyl)-1H-benzo[d][1,2,3]triazol-6-carboxylate hydrochloride], the IC50 worked out at 58.7 nM.

Regarding `COC(=O)c1cc(-c2cccc(S(=O)(=O)N3CCCC3)c2)c2nnn(C/C(F)=C/CN)c2c1` [Example 116, methyl (Z)-1-(4-amino-2-fluorobut-2-en-1-yl)-4-(3-(pyrrolidin-1-ylsulfonyl)phenyl)-1H-benzo[d][1,2,3]triazol-6-carboxylate hydrochloride], the IC50 amounted to 52.4 nM.

In the case of `COC(=O)c1cc(-c2cccc(S(C)(=O)=O)c2)c2nnn(C/C(F)=C/CN)c2c1` [Example 118, methyl (Z)-1-(4-amino-2-fluorobut-2-en-1-yl)-4-(3-(methylsulfonyl)phenyl)-1H-benzo[d][1,2,3]triazol-6-carboxylate hydrochloride], the IC50 was 34 nM.

For `COC(=O)c1cc(-c2ccc(OC)c(S(=O)(=O)NC(C)C)c2)c2nnn(C/C(F)=C/CN)c2c1` [Example 121, methyl (Z)-1-(4-amino-2-fluorobut-2-en-1-yl)-4-(3-(N-isopropylsulfamoyl)-4-methoxyphenyl)-1H-benzo[d][1,2,3]triazol-6-carboxylate hydrochloride], the IC50 is 42.9 nM.

Consider `COC(=O)c1cc(-c2cccc(S(=O)(=O)NC3CC3)c2)c2nnn(C/C(F)=C/CN)c2c1` [Example 122, methyl (Z)-1-(4-amino-2-fluorobut-2-en-1-yl)-4-(3-(N-cyclopropylsulfamoyl)phenyl)-1H-benzo[d][1,2,3]triazol-6-carboxylate hydrochloride], for which the IC50 was 32.2 nM.

On to `CNS(=O)(=O)c1cccc(-c2cc(C(=O)OC)cc3c2nnn3C/C(F)=C/CN)c1` [Example 123, methyl (Z)-1-(4-amino-2-fluorobut-2-en-1-yl)-4-(3-(N-methylsulfamoyl)phenyl)-1H-benzo[d][1,2,3]triazol-6-carboxylate hydrochloride], for which the IC50 is 12.6 nM.

In the case of `COC(=O)c1cc(-c2cccc(S(=O)(=O)N(C)C)c2)c2nnn(C/C(F)=C/CN)c2c1` [Example 124, methyl (Z)-1-(4-amino-2-fluorobut-2-en-1-yl)-4-(3-(N,N-dimethylsulfamoyl)phenyl)-1H-benzo[d][1,2,3]triazol-6-carboxylate hydrochloride], the IC50 turned out to be 14.2 nM.

For `COC(=O)c1cc(-c2cccc(S(=O)(=O)NCc3ccc(OC)cc3)c2)c2nnn(C/C(F)=C/CN)c2c1` [Example 125, methyl (Z)-1-(4-amino-2-fluorobut-2-en-1-yl)-4-(3-(N-(4-methoxybenzyl)sulfamoyl)phenyl)-1H-benzo[d][1,2,3]triazol-6-carboxylate hydrochloride], the IC50 was found to be 70.6 nM.

Regarding `CCS(=O)(=O)c1cccc(-c2cc(C(=O)OC)cc3c2nnn3C/C(F)=C/CN)c1` [Example 127, methyl (Z)-1-(4-amino-2-fluorobut-2-en-1-yl)-4-(3-(ethylsulfonyl)phenyl)-1H-benzo[d][1,2,3]triazol-6-carboxylate hydrochloride], the IC50 was determined as 19 nM.

As to `COC(=O)c1cc(-c2cc(S(=O)(=O)C(F)(F)F)ccc2C)c2nnn(C/C(F)=C/CN)c2c1` [Example 128, methyl (Z)-1-(4-amino-2-fluorobut-2-en-1-yl)-4-(2-methyl-5-((trifluoromethyl)sulfonyl)phenyl)-1H-benzo[d][1,2,3]triazol-6-carboxylate hydrochloride], the IC50 turned out to be 94.2 nM.

With `CONC(=O)c1cc(-c2ccc(OC)c(S(=O)(=O)N(C)C)c2)c2nnn(C/C(F)=C/CN)c2c1` [Example 132, (Z)-1-(4-amino-2-fluorobut-2-en-1-yl)-4-(3-(N,N-dimethylsulfamoyl)-4-methoxyphenyl)-N-methoxy-1H-benzo[d][1,2,3]triazol-6-carboxamide hydrochloride], the IC50 stood at 18.7 nM.
